Source: paper PMC5607274, “An iterative compound screening contest method for identifying target protein inhibitors using the tyrosine-protein kinase Yes” (Scientific Reports, 2017)

Molecular target: T1, human recombinant Yes [a.a. 2–543 (end)] (Homo sapiens, UniProt P07947)
T1 construct: human recombinant Yes [a.a; 2–543 (end)]; purchased BPS Bioscience 40488
Assay: ADP-Glo kinase assay, inhibition rates of Yes phosphorylation activity (first and second screening)
Format: biochemical
Conditions: 10 μmol L−1 compound; for First screening IR (inhibition rate): mean of n = 4 wells; for Second screening IR (inhibition rate): dissolved from fresh powder, n = 4
Outline: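 ADP-Glo luminescence measured inhibition of human recombinant Yes (a.a. 2–543) phosphorylation activity. In the first screen, each compound ran in 4 wells and inhibition rates were averaged. The second screen retested hits as compounds dissolved from fresh powder.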

T1 sequence (P07947 2-543): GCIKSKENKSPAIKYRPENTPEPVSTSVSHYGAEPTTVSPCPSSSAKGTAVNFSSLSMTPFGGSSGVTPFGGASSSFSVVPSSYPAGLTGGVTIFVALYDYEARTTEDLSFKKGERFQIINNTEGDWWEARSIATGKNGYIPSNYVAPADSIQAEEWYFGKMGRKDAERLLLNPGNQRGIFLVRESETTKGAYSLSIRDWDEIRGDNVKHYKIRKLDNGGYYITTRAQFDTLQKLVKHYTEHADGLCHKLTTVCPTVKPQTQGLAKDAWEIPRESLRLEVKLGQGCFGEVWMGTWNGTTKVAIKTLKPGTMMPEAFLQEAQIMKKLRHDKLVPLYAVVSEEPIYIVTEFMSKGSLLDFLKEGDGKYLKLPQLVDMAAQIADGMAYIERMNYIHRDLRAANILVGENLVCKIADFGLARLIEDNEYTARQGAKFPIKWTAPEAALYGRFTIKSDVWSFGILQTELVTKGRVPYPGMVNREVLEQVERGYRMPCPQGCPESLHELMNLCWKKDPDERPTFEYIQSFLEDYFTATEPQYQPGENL

Row | First screening IR (inhibition rate) | Second screening IR (inhibition rate) | SMILES
1 | 16% |  | O=C(Cn1c(CN2CCOCC2)nc2sc3c(c2c1=O)CCCC3)Nc1ccc(OCc2ccccc2)cc1 [Compound Z86108588]
2 | 3% |  | Cl.N#Cc1ccc(-c2cc(-c3ccccc3F)c3cc(Cl)ccc3n2)cc1 [Compound Z48955841]
3 | -5% |  | CCC(NC(=O)c1cc(C)nc2c1cnn2C(C)C)c1ccc(C)cc1 (stereo not drawn) [Compound Z203056244]
4 | 16% |  | CC(C)(Oc1ccc(Cl)cc1)C(=O)Nc1n[nH]c(-c2ccc(F)cc2)n1 [Compound Z108548764]
5 | 15% |  | O=C(CSc1nnc(-c2ccco2)o1)Nc1ccc2c(c1)CCC2 [Compound Z18650720]
6 | -4% |  | CCOc1ccc(-n2c(O)c3ccc(C(=O)N=C4N=c5ccccc5=N4)cc3c2O)cc1 [Compound Z27664836]
7 | -35% |  | CC(C)N(CC#N)S(=O)(=O)c1ccccc1S(C)(=O)=O [Compound Z1411146082]
8 | -20% |  | O=C(CS(=O)(=O)CCCc1ccccc1)Nc1ccc(-n2ccnc2)nc1 [Compound Z407006622]
9 | 4% |  | O=C1Nc2cc(Cl)ccc2/C1=C\c1cnn(-c2ccccc2)c1 [Compound Z95046696]
10 | -7% |  | COc1ccc(CN2CCC(CNC(=O)c3ccccc3SCc3c(C)noc3C)CC2)cc1 [Compound Z914096084]
11 | -9% |  | CCC(C)N(CC(=O)Nc1cccc(C)c1C)C(=O)COC(=O)c1cc(C(C)=O)cn1C (stereo not drawn) [Compound Z152371002]
12 | 32% |  | O=C1Nc2ccccc2/C1=C\c1cnn(-c2ccccc2)c1 [Compound Z95045593]
13 | 0% |  | Cn1nnnc1SCC(=O)c1c(-c2ccccc2)[nH]c2ccccc12 [Compound Z18519048]
14 | 0% |  | CC(c1ccc(S(N)(=O)=O)cc1)N(C)S(=O)(=O)c1cc(Cl)cc(Cl)c1 (stereo not drawn) [Compound Z65599853]
15 | 17% |  | COc1ccc(CN2C(=O)c3ccccc3C2=O)cc1C(=O)Nc1ccc(N2CCN(C)CC2)cc1C [Compound Z27972767]
16 | 14% |  | Cc1sc2ncnc(N/N=C/c3cccc(O)c3)c2c1C [Compound Z49890739]
17 | 9% |  | O=C(Nc1cnc2ccccc2c1)c1ccc(-n2ccc(C(F)(F)F)n2)cc1 [Compound Z815840280]
18 | -2% |  | CCC1CN(C(=O)OCc2ccccc2)C(CC)CN1C(=O)CCc1cnn(C)c1 (stereo not drawn) [Compound Z1251624666]
19 | 2% |  | CN(C1(C)CCS(=O)(=O)C1)S(=O)(=O)c1ccc(Cl)c(Cl)c1 (stereo not drawn) [Compound Z131022412]
20 | 5% |  | Cc1cc(C)n(-c2cncc(NC(C)c3nnc4ccccn34)n2)n1 (stereo not drawn) [Compound Z1343207103]
21 | 8% |  | Cc1cccc(C)c1OC1CCN(c2ncnc3c2cnn3C)CC1 [Compound Z646031500]
22 | 4% |  | COc1ccc(/C=C/c2noc(C)c2NC(=O)c2cccs2)cc1 [Compound Z226257158]
23 | 3% |  | Cc1sc2ncnc(N/N=C/c3ccncc3)c2c1C [Compound Z49890729]

Row | First screening IR (inhibition rate) | Second screening IR (inhibition rate) | SMILES
24 | -23% |  | Cc1cc(C(=O)/C(C#N)=C2\C(=O)Nc3c(Cl)cc(Cl)cc32)c(C)n1-c1cccc(C(F)(F)F)c1 [Compound Z56789382]
25 | 62% | 1% | CC(CCN1CCN(c2ccccc2)CC1)NC(=O)c1cc(-c2ccco2)nc2c1cnn2C(C)C (stereo not drawn) [Compound Z385234634]
26 | 5% |  | Cc1cc(NC(=O)c2ccn(-c3ccccc3)n2)n(CCC#N)n1 [Compound Z826713438]
27 | -12% |  | Cc1cc(/C=C/C(=O)N2CCN(C3CCS(=O)(=O)C3)CC2)c(C)n1-c1ccc2c(c1)OCO2 (stereo not drawn) [Compound Z89622401]
28 | 8% |  | O=C(Nc1nc2c(s1)CN(Cc1ccccc1)CC2)c1csc(-c2ccsc2)n1 [Compound Z108907460]
29 | 1% |  | O=c1[nH]c2cc(Cl)ccc2c(-c2ccccc2)c1CN1CCCCC1 [Compound Z1980444406]
30 | -9% |  | Cc1cccn2cc(-c3ccc(NC(=O)c4ccc(=O)[nH]c4)cc3)nc12 [Compound Z666279820]
31 | 2% |  | Cc1ccc(S(=O)(=O)N(C)C2CCS(=O)(=O)C2)cc1C (stereo not drawn) [Compound Z89320796]
32 | 6% |  | Cc1ccccc1Nc1nc(N)nc(CSCc2ccc(Cl)cc2)n1 [Compound Z18432818]
33 | 26% |  | CSc1ccc(C(C)N2CCCC(C(=O)N3CCOCC3)C2)cc1F (stereo not drawn) [Compound Z1742902065]
34 | 10% |  | CCN(C1CCS(=O)(=O)C1)S(=O)(=O)c1ccc(C)c(C)c1 (stereo not drawn) [Compound Z45467115]
35 | -2% |  | CCN(CC)c1ccc2c(c1)OC(=O)N(c1ccc(Cl)c(Cl)c1)P2(=Nc1ccc(C)cc1)N(CC)CC (stereo not drawn) [Compound Z56783141]
36 | 5% |  | CCOC(=O)c1c(-c2ccc(OC)c(OC)c2)csc1NC(=O)CN1CCN(c2cccc(OC)c2)CC1 [Compound Z46357060]
37 | -9% |  | Cc1c(NC(=O)C2CC(=O)N(c3ccc4c(c3)CCC4)C2)n[nH]c1C1CC1 (stereo not drawn) [Compound Z954497746]
38 | 7% |  | COC(=O)Nc1ccc(NC(=O)C2CC2c2ccc(C(C)C)cc2)cc1F (stereo not drawn) [Compound Z1646916001]
39 | 15% |  | Cc1ccccc1CN1CCN(CC(=O)c2cc(C)n(CC3CCCO3)c2C)CC1 (stereo not drawn) [Compound Z105957250]
40 | 3% |  | COc1cccc(OCCN2CCN(c3cc(C)nc4c(-c5ccc(Cl)cc5)c(C)nn34)CC2)c1 [Compound Z435980234]
41 | 6% |  | CC(=O)Nc1ccc(Nc2cc(C(C)(C)C)nc3c(-c4ccccc4Cl)c(C)nn23)cc1 [Compound Z1172235206]
42 | 51% |  | O=C(Nc1ccc2nc(-c3ccco3)[nH]c2c1)c1ccc(Cl)nc1 [Compound Z757780044]
43 | -5% |  | CN(C(=O)c1cccc(NC(=O)c2ccc(Br)o2)c1)c1ccc(C#N)cc1 [Compound Z1269414490]
44 | 35% |  | CC1CN(c2nccnc2C#N)CCN1C(=O)c1cccc(OCc2ccc(F)cc2)c1 (stereo not drawn) [Compound Z1401935735]
45 | 2% |  | Cc1nc2ccccc2c(=O)n1/N=C/c1c2ccccc2cc2ccccc12 [Compound Z49732101]
46 | 48% |  | O=C(c1ccoc1)N1CCN(c2ncnc3cc(-c4ccc(F)cc4)sc23)CC1 [Compound Z373317194]

Row | First screening IR (inhibition rate) | Second screening IR (inhibition rate) | SMILES
47 | 36% |  | Cc1c(C(=O)NCCOc2ccccc2F)[nH]c2c1C(=O)CCC2 [Compound Z51995316]
48 | 27% |  | Cc1nn(C)c2nc(C3CC3)cc(C(=O)Nc3ccccc3O)c12 [Compound Z235446856]
49 | 12% |  | CC(NS(=O)(=O)c1ccc(C(C)(C)C)cc1)c1ccc(-n2ccnc2)cc1 (stereo not drawn) [Compound Z45488256]
50 | -18% |  | O=S(=O)(c1ccc(Cl)cc1)C1(S(=O)(=O)c2ccc(Cl)cc2)CCCC1 [Compound Z56759577]
51 | 8% |  | O=C(OCc1nc(-c2cccs2)no1)c1c(F)cccc1F [Compound Z51088101]
52 | 51% | -10% | CS(=O)(=O)c1ccc(N2CCCCCC2)c(S(C)(=O)=O)c1 [Compound Z199538216]
53 | -13% |  | O=C(NS(=O)(=O)Cc1ccc(Cl)nc1)C1CCc2cn[nH]c2C1 (stereo not drawn) [Compound Z1291253354]
54 | 37% | -3% | Cc1cccc(N=C2NN=C(c3ccc(CCNS(C)(=O)=O)s3)CS2)c1C [Compound Z232307154]
55 | 0% |  | CCc1c(C(=O)CN2CCCC2c2ccsc2)[nH]c(C)c1C(C)=O (stereo not drawn) [Compound Z839968520]
56 | 12% |  | Cc1cc(C)n(-c2nc(-c3cccnc3)nc3ccccc23)n1 [Compound Z56839033]
57 | -10% |  | CC(C)n1ncc2cc(C(=O)Nc3ccc4[nH]c(=O)[nH]c4c3)cnc21 [Compound Z217430364]
58 | 1% |  | CC(C)CN(C1CCS(=O)(=O)C1)S(=O)(=O)c1ccc(Cl)cc1 (stereo not drawn) [Compound Z45480638]
59 | -9% |  | CCn1c(CNc2ccc3c(C)cc(=O)oc3c2)nc2cc(S(=O)(=O)N3CCCCC3)ccc21 [Compound Z139671368]
60 | 6% |  | COc1ccc(CSCc2nc(N)nc(Nc3ccccc3C)n2)cc1F [Compound Z45342622]
61 | 24% |  | O=C1Nc2ccccc2/C1=C\c1c(Cl)nc2sccn12 [Compound Z46060818]
62 | 17% |  | Cc1ccc(S(=O)(=O)N(C)c2ccc(OCC(=O)Nc3ccc4oc(C)nc4c3)cc2)cc1 [Compound Z70909087]
63 | -23% |  | CN1CCCN(c2nc(C(F)(F)F)nc3c2cnn3Cc2ccccc2)CC1 [Compound Z359311942]
64 | 9% |  | Cc1ccc(Cn2ncc3c(NN)ncnc32)cc1 [Compound Z57458515]
65 | 18% |  | COc1cc(/C=N/Nc2nc(-c3ccncc3)nc3ccccc23)ccc1O [Compound Z56841676]
66 | -1% |  | COc1ccccc1/C=C1\CC(C)Cc2c1nc1ccccc1c2C(=O)O (stereo not drawn) [Compound Z46107852]
67 | -17% |  | CN(C)C(=O)Sc1ccc(NC(=O)COc2ccc(F)cc2)cc1 [Compound Z1126778415]
68 | -4% |  | CCN(C(C)C)S(=O)(=O)c1ccc(S(C)(=O)=O)cc1 [Compound Z736710192]
69 | -7% |  | COc1ccc(-c2cc(CSCc3nc(N)nc(Nc4ccccc4)n3)on2)cc1 [Compound Z317187130]
